For this test, the system named is L1210 leukemia ip in BDF1 mice, survival T/C. Nature of the test: NCI In Vivo Anticancer Drug Screen. Data for tumor model L1210 Leukemia (intraperitoneal) in B6D2F1 (BDF1) mice. The settings on record: endpoint: mean survival time, higher = longer survival. The method in brief:
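Survival endpoint. Drug-treated group vs vehicle group, expressed as T divided by C. Tumor passaged by transplantation.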

Where [1] appears, read: dose: 100.0 mg/kg/injection, schedule: Q04DX003 (ip), vehicle: saline with Tween-80.
Setting [2] is: dose: 400.0 mg/kg/injection, schedule: Q04DX003 (ip), vehicle: saline with Tween-80.
The mark [3] stands for this setting: dose: 100.0 mg/kg/injection, schedule: Q01DX001 (ip), vehicle: carboxymethylcellulose (CMC).
Where [4] appears, read: dose: 200.0 mg/kg/injection, schedule: Q01DX001 (ip), vehicle: carboxymethylcellulose (CMC).
Where [5] appears, read: dose: 400.0 mg/kg/injection, schedule: Q01DX001 (ip), vehicle: carboxymethylcellulose (CMC).
Setting [6] is: dose: 100.0 mg/kg/injection, schedule: Q04DX003 (ip), vehicle: saline.
Setting [7] is: dose: 100.0 mg/kg/injection, schedule: Q01DX001 (ip), vehicle: saline.
[8] abbreviates: dose: 200.0 mg/kg/injection, schedule: Q01DX001 (ip), vehicle: saline.
[9] abbreviates: dose: 400.0 mg/kg/injection, schedule: Q01DX001 (ip), vehicle: saline.

Molecules are shown by their SMILES. “And” between values parts separate entries of the source, which are not always exact repeats. Identical values can stand only once. Inconclusive results and toxic doses are left out.

In PubChem BioAssay AID248 (DTP/NCI, 2004) one finds T/C data, which are given here for 18 compounds.

For the compound `NC(Cn1ccc(=O)c(O)c1)C(=O)O` (stereo unspecified), the T/C is 105 % of control (dose: 50.0 mg/kg/injection, schedule: Q01DX009 (ip), vehicle: saline); 103 % of control (dose: 75.0 mg/kg/injection, schedule: Q04DX003 (ip), vehicle: saline); 102 % of control (dose: 100.0 mg/kg/injection, schedule: Q01DX009 (ip), vehicle: saline); 95 % of control under setting [1]; 92 % of control (dose: 111.0 mg/kg/injection, schedule: Q01DX Z (ip), vehicle: saline); 92 % of control (dose: 150.0 mg/kg/injection, schedule: Q04DX003 (ip), vehicle: saline). Further, the T/C runs as follows: (dose: 178.0 mg/kg/injection, schedule: Q01DX Z (ip), vehicle: saline) 95 % of control; (dose: 200.0 mg/kg/injection, schedule: Q01DX009 (ip), vehicle: saline) 102 % of control; (dose: 200.0 mg/kg/injection, schedule: Q04DX003 (ip), vehicle: saline with Tween-80) 94 % of control; (dose: 267.0 mg/kg/injection, schedule: Q01DX Z (ip), vehicle: saline) 108 % of control; (dose: 300.0 mg/kg/injection, schedule: Q04DX003 (ip), vehicle: saline) 90 % of control; (dose: 400.0 mg/kg/injection, schedule: Q01DX Z (ip), vehicle: saline) 93 % of control. Besides, the T/C under setting [2] was 100 % of control and the T/C (dose: 800.0 mg/kg/injection, schedule: Q01DX009 (ip), vehicle: saline) was 111 % of control.

On to `CC(CO)(CO)N=Cc1cc([N+](=O)[O-])ccc1O`, for which the T/C by setting is: under setting [3], 98 % of control; under setting [4], 98 % of control; under setting [5], 98 % of control.

Regarding `CCOC(=O)CSC(=S)SCC(=O)OCC`, the T/C was 104 % of control under setting [6]; 105 % of control (dose: 200.0 mg/kg/injection, schedule: Q04DX003 (ip), vehicle: saline); 107 % of control (dose: 400.0 mg/kg/injection, schedule: Q04DX003 (ip), vehicle: saline).

With `Cc1cc(CN(C)C)cc(C(C)C)c1O`, the T/C reads like this: (dose: 12.5 mg/kg/injection, schedule: Q01DX009 (ip), vehicle: saline with Tween-80) 96 % of control; (dose: 25.0 mg/kg/injection, schedule: Q01DX009 (ip), vehicle: saline with Tween-80) 97 % of control.

Turning to `O=[N+]([O-])c1ccc(O)c(C2OCCCO2)c1`, the T/C by setting is: under setting [7], 101 % of control; under setting [8], 98 % of control; under setting [9], 101 % of control.

For `Cc1cc(C)c(-n2c(-c3ccc(Cl)cc3)nnc2-c2ccc(Br)cc2)c(C)c1`, the T/C is 101 % of control (dose: 100.0 mg/kg/injection, schedule: Q04DX003 (ip), vehicle: Klucel (hydroxypropylcellulose) (HPC)); 90 % of control (dose: 200.0 mg/kg/injection, schedule: Q04DX003 (ip), vehicle: Klucel (hydroxypropylcellulose) (HPC)); 95 % of control (dose: 400.0 mg/kg/injection, schedule: Q04DX003 (ip), vehicle: Klucel (hydroxypropylcellulose) (HPC)).

`O=C(Nc1ccc(C2=NCCN2)cc1)c1cccc(C(=O)Nc2ccc(C3=NCCN3)cc2)c1O`: the T/C reads like this: (dose: 2.5 mg/kg/injection, schedule: Q01DX Z (ip), vehicle: carboxymethylcellulose (CMC)) 120 % of control; (dose: 5.0 mg/kg/injection, schedule: Q01DX Z (ip), vehicle: carboxymethylcellulose (CMC)) 105 % of control; (dose: 7.5 mg/kg/injection, schedule: Q01DX Z (ip), vehicle: carboxymethylcellulose (CMC)) 109 % of control; (dose: 10.0 mg/kg/injection, schedule: Q01DX Z (ip), vehicle: carboxymethylcellulose (CMC)) 157 % of control; (dose: 15.0 mg/kg/injection, schedule: Q01DX Z (ip), vehicle: carboxymethylcellulose (CMC)) 259 % of control; (dose: 20.0 mg/kg/injection, schedule: Q01DX Z (ip), vehicle: carboxymethylcellulose (CMC)) 272 % of control. In addition, the T/C runs as follows: (dose: 30.0 mg/kg/injection, schedule: Q01DX Z (ip), vehicle: carboxymethylcellulose (CMC)) 296 % of control; (dose: 31.0 mg/kg/injection, schedule: Q01DX Z (oral), vehicle: carboxymethylcellulose (CMC)) 106 % of control; (dose: 62.0 mg/kg/injection, schedule: Q01DX Z (oral), vehicle: carboxymethylcellulose (CMC)) 102 % of control; (dose: 125.0 mg/kg/injection, schedule: Q01DX Z (oral), vehicle: carboxymethylcellulose (CMC)) 113 % of control; (dose: 250.0 mg/kg/injection, schedule: Q01DX Z (oral), vehicle: carboxymethylcellulose (CMC)) 104 % of control.

For the compound `O=C(Nc1ccccc1Cl)Oc1ccc(C2CCCCC2)cc1`, the T/C reads like this: (dose: 100.0 mg/kg/injection, schedule: Q04DX002 (ip), vehicle: Klucel (hydroxypropylcellulose) (HPC)) 103 % of control; (dose: 200.0 mg/kg/injection, schedule: Q04DX002 (ip), vehicle: Klucel (hydroxypropylcellulose) (HPC)) 98 % of control; (dose: 400.0 mg/kg/injection, schedule: Q04DX002 (ip), vehicle: Klucel (hydroxypropylcellulose) (HPC)) 98 % of control.

For the compound `Cc1csc2c1c(N)nc(=O)n2C1OC(CO)C(O)C1O` (stereo unspecified), the T/C was 112 % of control (dose: 100.0 mg/kg/injection, schedule: Q01DX005 (ip), vehicle: saline) and 102 % of control (dose: 200.0 mg/kg/injection, schedule: Q01DX005 (ip), vehicle: saline).

As to `[O-][n+]1c2ccccc2c(Oc2ccccc2)c2ccc3ccccc3c21`, the T/C reads like this: under setting [1], 95 % of control; under setting [2], 92 % of control.

As to `CC(=O)OC1CCC(NC(=O)N(CCCl)N=O)CC1` (stereo unspecified), the T/C (dose: 15.0 mg/kg/injection, schedule: Q01DX001 (ip), vehicle: other) was 225 % of control; the T/C (dose: 30.0 mg/kg/injection, schedule: Q01DX001 (ip), vehicle: other) is 352 % of control; the T/C (dose: 62.0 mg/kg/injection, schedule: Q01DX001 (ip), vehicle: other) was 244 % of control.

As for `O=C(NC1N=C2OC(COC(=O)c3ccccc3)C(OC(=O)c3ccccc3)C2O1)c1ccccc1` (stereo unspecified), the T/C is, setting by setting: (dose: 100.0 mg/kg/injection, schedule: Q01DX009 (ip), vehicle: saline with Tween-80) 108 % of control; (dose: 200.0 mg/kg/injection, schedule: Q01DX009 (ip), vehicle: saline with Tween-80) 93 % of control; (dose: 400.0 mg/kg/injection, schedule: Q01DX009 (ip), vehicle: saline with Tween-80) 98 % of control.

Consider `COc1ccc([I+]c2ccccc2C(=O)[O-])cc1OC`, for which the T/C was 98 % of control (dose: 50.0 mg/kg/injection, schedule: Q01DX001 (ip), vehicle: saline); 96 % of control under setting [7]; 104 % of control under setting [8]; 98 % of control under setting [9].

With `COC(=O)C1=C(C(=O)OC)[N+](C)(C)N=C1[O-]`, the T/C (dose: 25.0 mg/kg/injection, schedule: Q04DX003 (ip), vehicle: saline) is 110 % of control; the T/C (dose: 50.0 mg/kg/injection, schedule: Q04DX003 (ip), vehicle: saline) was 104 % of control; the T/C under setting [6] was 95 % of control and 101 % of control.

For `Nc1ccc2c(c1)C(O)c1cc(Br)ccc1-2` (stereo unspecified), the T/C is 108 % of control under setting [3], 100 % of control under setting [4] and 105 % of control under setting [5].

For the compound `Brc1ccc2[nH]c3c(c2c1)CSCC3`, the T/C (dose: 100.0 mg/kg/injection, schedule: Q01DX001 (ip), vehicle: saline with Tween-80) was 95 % of control; the T/C (dose: 200.0 mg/kg/injection, schedule: Q01DX001 (ip), vehicle: saline with Tween-80) is 111 % of control; the T/C (dose: 400.0 mg/kg/injection, schedule: Q01DX001 (ip), vehicle: saline with Tween-80) is 108 % of control.

Turning to `CC(NC1CCCCC1)C(=O)O` (stereo unspecified), the T/C (dose: 12.5 mg/kg/injection, schedule: Q04DX002 (ip), vehicle: Klucel (hydroxypropylcellulose) (HPC)) was 93 % of control; the T/C (dose: 25.0 mg/kg/injection, schedule: Q04DX002 (ip), vehicle: Klucel (hydroxypropylcellulose) (HPC)) is 96 % of control; the T/C (dose: 50.0 mg/kg/injection, schedule: Q04DX002 (ip), vehicle: Klucel (hydroxypropylcellulose) (HPC)) was 89 % of control.

With `Cc1nonc1C(=O)N(C)C`, the T/C was 98 % of control (dose: 25.0 mg/kg/injection, schedule: Q04DX002 (ip), vehicle: saline); 102 % of control (dose: 50.0 mg/kg/injection, schedule: Q04DX002 (ip), vehicle: saline); 102 % of control (dose: 100.0 mg/kg/injection, schedule: Q04DX002 (ip), vehicle: saline).
